Reference: patent publication US20060293307A1, “Oxazolidinone derivatives as antimicrobials” (priority 2002, published 2006)
In brackets after ≈: the same amount, converted by molar mass.

System: 139
Assay: MIC, agar incorporation method
Assay type: cell-based
Summary of the method: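 Doubling dilutions of compound in DMSO were incorporated into Mueller-Hinton agar; 10^4 CFU/spot inoculated from 0.5 McFarland suspensions and incubated 18 h (24 h for MRSN studies). MIC = lowest concentration without visible growth; valid only when ATCC reference strains gave in-range MICs.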

| SMILES | MIC [µg/mL] |
| --- | --- |
| CC(=O)NC[C@H]1CN(c2ccc(N3CCN(c4ccc([N+](=O)[O-])s4)CC3)c(F)c2)C(=O)O1 [Compound No. 1, (S)—N-[[3-[3-Fluoro-4-[4-(5-nitro-2-thienyl)-1-piperazinyl]phenyl]-2-oxo-5-oxazolidinyl]methyl]acetamide] | 0.25 (≈ 0.539 µM) |
| CC(=O)NC[C@H]1CN(c2ccc(N3CCN(c4ccc(C=O)o4)CC3)c(F)c2)C(=O)O1 [Compound No. 3, (S)—N-[[3-[3-Fluoro-4-[4-(5-formyl-2-furyl)-1-piperazinyl]phenyl]-2-oxo-5-oxazolidinyl]methyl]acetamide] | 0.5 (≈ 1.16 µM) |
| CC(=O)NC[C@H]1CN(c2ccc(N3CCOCC3)c(F)c2)C(=O)O1 [Linezolid, reference compound] | 1 (≈ 2.96 µM) |
| CN[C@H](CC(C)C)C(=O)N[C@H]1C(=O)N[C@@H](CC(N)=O)C(=O)N[C@H]2C(=O)N[C@H]3C(=O)N[C@H](C(=O)N[C@H](C(=O)O)c4cc(O)cc(O)c4-c4cc3ccc4O)[C@H](O)c3ccc(c(Cl)c3)Oc3cc2cc(c3O[C@@H]2O[C@H](CO)[C@@H](O)[C@H](O)[C@H]2O[C@H]2C[C@](C)(N)[C@H](O)[C@H](C)O2)Oc2ccc(cc2Cl)[C@H]1O [Vancomycin, reference compound] | > 16 |
